Reference: patent US8394792B2, “Heterocyclic derivatives” (C&C Research Laboratories, priority 2008, dated 2013)
Converted amounts (≈) assume the structure as drawn. Structures can show the parent of a compound that is named as a salt. Where two headings read alike, the source gives them in different places.

Experiments:
hURAT1 = biological target: T1, hURAT1 (Homo sapiens, UniProt Q96S37); assay: Test for inhibiting urate reuptake activity via hURAT1 (uric acid transport assay in hURAT1-overexpressed HEK293 cell line); format: cell-based; details: hURAT1-overexpressed HEK293 cells, [14C]-uric acid uptake, 100 μM uric acid; read-out: IC50 (μM) hURAT, level of uric acid reuptake inhibition
T1 construct: expressed in transfected cells; host or cells: HEK293 (human kidney cell line), transient transfection with Fugene6
T1 sequence (Q96S37 1-553): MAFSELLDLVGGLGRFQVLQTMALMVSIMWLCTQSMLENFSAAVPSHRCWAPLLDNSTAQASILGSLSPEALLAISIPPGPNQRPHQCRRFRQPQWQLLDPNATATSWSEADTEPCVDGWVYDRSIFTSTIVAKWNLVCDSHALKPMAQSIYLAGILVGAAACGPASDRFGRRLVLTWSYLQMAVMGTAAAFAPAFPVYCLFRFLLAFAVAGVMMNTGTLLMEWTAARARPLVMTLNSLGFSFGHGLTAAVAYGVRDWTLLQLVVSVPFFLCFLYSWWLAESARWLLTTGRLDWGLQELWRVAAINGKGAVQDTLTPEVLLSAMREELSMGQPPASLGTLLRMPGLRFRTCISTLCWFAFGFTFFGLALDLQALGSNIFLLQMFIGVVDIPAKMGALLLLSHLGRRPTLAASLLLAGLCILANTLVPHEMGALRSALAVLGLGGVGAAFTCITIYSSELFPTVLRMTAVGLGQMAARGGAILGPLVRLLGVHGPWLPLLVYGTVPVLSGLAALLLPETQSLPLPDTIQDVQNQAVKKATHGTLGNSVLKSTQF
Description: Test for Inhibiting Urate Reuptake Activity Via hURAT1
[hURAT1 Overexpression by Transient Transfection in Human Kidney Cell Line]
A human kidney cell line, HEK293 was incubated by using OptiMEM medium in 100 mm dish at (3*10^6 cells) for 24 hours. In order for the expression of hURAT1, a transfection mixture solution (Fugene6 18 μl:hURAT1 DNA 6 μg=3:1, in 600 μl OptiMEM medium/dish) was prepared and kept for 15 minutes at room temperature. To each dish, 600 μl of the mixture solution was injected and then incubated in 37[…] cell incubator for 24 hours. The hURAT1-overexpressed HEK293 cell line was trypsinized and cells were harvested. Cells were resuspended in medium and seeded at 6*10^5 cells/well and incubated for 24 hours in 24-well plate which was surface-coated with Poly-D-Lysine.
[Uric Acid Transport Assay in hURAT1-Overexpressed HEK293 Cell Line]
For each concentration, the stock sample solution was diluted in PBS (1 μl in 800 μl of PBS) as 1.25 fold concentrated working sample solution to obtain final concentrations of 0.01, 0.1, 1 and 10 μM. The hURAT1-overexpressed cell line was washed with 1 ml of PBS. After washing, PBS was discarded and the sample solution was diluted by 1.25 fold with PBS. Preincubation of cells with 200 μl/well of sample solution made above was conducted for 30 minutes in 37[…] cell incubator. After the incubation, each well was treated with 50 μl of PBS containing 500 μM [^14C]-uric acid (final 100 μM of uric acid/well). Cells were incubated for 2 minutes. The cells were washed twice with 1 ml of PBS.
To measure the uric acid uptake, each well was treated with 150 μl of M-per buffer (PIERCE) and kept in 37° C. cell incubator for 30 minutes to make cell lysates. 150 μl of cell lysates was transferred into test tube and 4 ml of scintillation cocktail was added. CPM value of [^14C]-uric acid absorbed into cells was detected using liquid scintillation counter. IC50 for the inhibition of uric acid uptake by each test sample was analyzed by computational numerical processing.

CYP2C9 = CYP2C9 (Homo sapiens, UniProt P11712); assay: biochemical
[1] = Test for solubility according to pH; format: physicochemical; details: 37° C. 2 hours; for solubility at 2 h: thermodynamic from solid
[2] = pH 1.2, simulated gastric fluid, first solution pH about 1.2, 2 mg/mL, read-out: Solubility (μg/mL) pH 1.2
[3] = pH 6.8, aqueous buffer, second solution pH about 6.8, 2 mg/mL, read-out: Solubility (μg/mL) pH 6.8
[4] = 37 °C, pH 1.2, simulated gastric fluid, first solution pH about 1.2, 2 mg/mL, read-out: Solubility (μg/mL) pH 1.2
[5] = 37 °C, pH 6.8, aqueous buffer, second solution pH about 6.8, 2 mg/mL, read-out: Solubility (μg/mL) pH 6.8

Chain of CYP2C9 (P11712 whole entry): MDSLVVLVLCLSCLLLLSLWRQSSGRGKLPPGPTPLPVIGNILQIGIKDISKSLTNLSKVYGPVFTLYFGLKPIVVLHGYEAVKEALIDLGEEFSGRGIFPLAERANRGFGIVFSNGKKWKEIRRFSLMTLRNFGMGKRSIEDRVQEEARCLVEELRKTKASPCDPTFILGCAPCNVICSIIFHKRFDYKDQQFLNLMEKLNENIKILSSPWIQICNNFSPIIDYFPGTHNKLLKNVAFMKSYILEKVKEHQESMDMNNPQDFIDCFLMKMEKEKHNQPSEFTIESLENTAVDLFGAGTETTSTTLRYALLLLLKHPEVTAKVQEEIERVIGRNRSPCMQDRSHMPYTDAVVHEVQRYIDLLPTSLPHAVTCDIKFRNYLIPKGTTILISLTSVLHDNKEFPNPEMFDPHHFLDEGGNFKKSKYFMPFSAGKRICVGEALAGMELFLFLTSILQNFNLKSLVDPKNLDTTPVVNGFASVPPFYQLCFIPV

| SMILES | IC50 (hURAT1) | IC50 (CYP2C9) | also measured |
| --- | --- | --- | --- |
| O=C(c1ccc(O)c(Cl)c1)N1CCOc2ccncc21 [Compound 10, (3-chloro-4-hydroxy-phenyl)-(2,3-dihydro-pyrido[4,3-b][1,4]oxazin-4-yl)-methanone bromic acid salt] | 0.334 µM | > 60 µM |  |
| Cl.O=C(c1cc(Br)c(O)c(Br)c1)N1CCOc2ccncc21 [Compound 33, (3,5-dibromo-4-hydroxy-phenyl)-(2,3-dihydro-pyrido[4,3-b][1,4]oxazin-4-yl)-methanone hydrochloric acid salt] |  |  | solubility at 2 h [1, 2]: 1580 µg/mL; solubility at 2 h [1, 3]: 810 µg/mL |
| O=C(c1cc(O)no1)N1CCOc2ccncc21 [Compound 44, (2,3-dihydro-pyrido[4,3-b][1,4]oxazin-4-yl)-(3-hydroxy-isoxazol-5-yl)-methanone] |  | > 20 µM | solubility at 2 h [1, 4]: 1960 µg/mL (≈ 7.93 mM); solubility at 2 h [1, 5]: 2100 µg/mL (≈ 8.48 mM) |
| O=C(c1ccc(O)nc1)N1CCOc2ccncc21 [Compound 32, (2,3-dihydro-pyrido[4,3-b][1,4]oxazin-4-yl)-(6-hydroxy-pyridin-3-yl)-methanone] |  | > 20 µM | solubility at 2 h [1, 4]: 1960 µg/mL (≈ 7.62 mM); solubility at 2 h [1, 5]: 1470 µg/mL (≈ 5.73 mM) |
| COc1c(Br)cc(C(=O)N2CCOc3ncc(C#N)cc32)cc1Br [Compound 47-1, 1-(3,5-dibromo-4-methoxy-benzoyl)-2,3-dihydro-1H-pyrido[2,3-b][1,4]oxazin-7-carbonitrile] | 0.516 µM | > 20 µM |  |
| COc1c(Br)cc(C(=O)N2CCOc3ccncc32)cc1Br [Compound 2, (3,5-dibromo-4-methoxy-phenyl)-(2,3-dihydro-pyrido[4,3-b][1,4]oxazin-4-yl)-methanone] | 0.136 µM | > 12 µM |  |
| O=C(c1ccc(O)c(Br)c1)N1CCOc2ccncc21 [Compound 38, (3-bromo-4-hydroxy-phenyl)-(2,3-dihydro-pyrido[4,3-b][1,4]oxazin-4-yl)-methanone] | 0.0964 µM | > 20 µM |  |
| O=C(c1ccc(O)c(Br)c1)N1CCOc2cnccc21 [Compound 40, (3-bromo-4-hydroxy-phenyl)-(2,3-dihydro-pyrido[3,4-b][1,4]oxazin-1-yl)-methanone] |  | 15.1 µM | solubility at 2 h [1, 4]: 1320 µg/mL (≈ 3.93 mM); solubility at 2 h [1, 5]: 473 µg/mL (≈ 1.41 mM) |
| O=C(c1cc(Cl)nc(Cl)c1)N1CCOc2ccncc21 [Compound 31, (2,6-dichloro-pyridin-4-yl)-(2,3-dihydro-pyrido[4,3-b][1,4]oxazin-4-yl)-methanone] |  | > 20 µM | solubility at 2 h [1, 4]: 1850 µg/mL (≈ 5.95 mM); solubility at 2 h [1, 5]: 199 µg/mL (≈ 0.641 mM) |
| Oc1c(Br)cc(C(=S)N2CCOc3ccncc32)cc1Br [Compound 51, (3,5-dibromo-4-hydroxy-phenyl)-(2,3-dihydro-pyrido[4,3-b][1,4]oxazin-4-yl)-methanethione] | 0.0115 µM | 8.8 µM |  |
| O=S(=O)(c1ccc(O)cc1)N1CCOc2ccncc21 [Compound 35-1, 4-(2,3-dihydro-pyrido[4,3-b][1,4]oxazin-4-sulfonyl)-phenol] |  | > 20 µM |  |
| Oc1c(Br)cc(C(=S)N2CCOc3ccncc32)cc1Br [Compound 74, (3,5-dibromo-4-hydroxy-phenyl)-(2,3-dihydro-pyrido[4,3-b][1,4]oxazin-4-yl)-methanethione trifluoroacetic acid salt] | 0.006 µM | 16.7 µM |  |
| O=C(c1cc(Br)c(O)c(Br)c1)N1CCOc2ncc(Br)cc21 [Compound 25, (7-bromo-2,3-dihydro-pyrido[2,3-b][1,4]oxazin-1-yl)-(3,5-dibromo-4-hydroxy-phenyl)-methanone] | 0.0073 µM | > 20 µM |  |
| Cc1cnc2c(c1)N(C(=O)c1ccc(O)c(C(F)(F)F)c1)CCO2 [Compound 69, (4-hydroxy-3-trifluoromethyl-phenyl)-(7-methyl-2,3-dihydro-pyrido[2,3-b][1,4]oxazin-1-yl)-methanone] | 0.0331 µM | > 20 µM |  |
| O=S(=O)(c1cc(Cl)c(O)c(Cl)c1)N1CCOc2ccncc21 [Compound 21, 2,6-dichloro-4-(2,3-dihydro-pyrido[4,3-b][1,4]oxazin-4-sulfonyl)-phenol] | 0.954 µM | 1.11 µM |  |
| COc1c(Br)cc(C(=O)N2CCOc3cnccc32)cc1Br [Compound 5, (3,5-dibromo-4-methoxy-phenyl)-(2,3-dihydro-pyrido[3,4-b][1,4]oxazin-1-yl)-methanone] | 0.175 µM |  |  |
| O=C(CN1CCOc2ccncc21)c1cc(Br)c(O)c(Br)c1 [Compound 54, 1-(3,5-dibromo-4-hydroxy-phenyl)-2-(2,3-dihydro-pyrido[4,3-b][1,4]oxazin-4-yl)-ethanone] |  | > 6 µM |  |
| O=C(c1cc(Br)c([O-])c(Br)c1)N1CCOc2ccncc21.[K+] [Compound 73] |  |  | solubility at 2 h [1, 2]: 1150 µg/mL; solubility at 2 h [1, 3]: 565 µg/mL |
| O=C(c1ccc(O)c(Cl)c1)N1CCOc2cnccc21 [Compound 18, (3-chloro-4-hydroxy-phenyl)-(2,3-dihydro-pyrido[3,4-b][1,4]oxazin-1-yl)-methanone bromic acid salt] |  | 9.7 µM |  |
| CC(=O)c1ccc(-c2cnc3c(c2)N(C(=O)c2cc(Br)c(O)c(Br)c2)CCO3)cc1 [Compound 67, 1-{4-[1-(3,5-dibromo-4-hydroxy-benzoyl)-2,3-dihydro-1H-pyrido[2,3-b][1,4]oxazin-7-yl]-phenyl}-ethanone] | 0.0078 µM |  |  |
| O=C1CCCN1c1cnc2c(c1)N(C(=O)c1cc(Br)c(O)c(Br)c1)CCO2 [Compound 75, 1-[1-(3,5-dibromo-4-hydroxy-benzoyl)-2,3-dihydro-1H-pyrido[2,3-b][1,4]oxazin-7-yl]-pyrrolidin-2-one] |  | 11.6 µM |  |
| COc1cc(C(=O)N2CCOc3ccncc32)on1 [Compound 43, (2,3-dihydro-pyrido[4,3-b][1,4]oxazin-4-yl)-(3-methoxy-isoxazol-5-yl)-methanone] |  | > 20 µM | solubility at 2 h [1, 4]: 1260 µg/mL (≈ 4.82 mM); solubility at 2 h [1, 5]: 1010 µg/mL (≈ 3.86 mM) |
| O=C(c1cc(Br)c(O)c(Br)c1)N1CCOc2ccncc21 [Compound 71, (3,5-dibromo-4-hydroxy-phenyl)-(2,3-dihydro-pyrido[4,3-b][1,4]oxazin-4-yl)-methanone sulfuric acid salt] |  | > 20 µM | solubility at 2 h [1, 4]: 2140 µg/mL; Solubility (μg/mL) pH 6.8 ([1]; second solution pH about 6.8, 2 mg/mL): 344.7 μg/mL |
| O=C(c1cc(O)nc(O)n1)N1CCOc2ccncc21 [Compound 60, (2,3-dihydro-pyrido[4,3-b][1,4]oxazin-4-yl)-(2,6-dihydroxy-pyrimidin-4-yl)-methanone] |  | > 20 µM | solubility at 2 h [1, 4]: 2130 µg/mL (≈ 7.75 mM); solubility at 2 h [1, 5]: 600 µg/mL (≈ 2.19 mM) |
| COc1c(Br)cc(C(=O)N2C(=O)COc3ccncc32)cc1Br [Compound 57, 4-(3,5-dibromo-4-methoxy-benzoyl)-4H-pyrido[4,3-b][1,4]oxazin-3-one] |  | > 20 µM |  |
| O=C(c1cnc(O)nc1O)N1CCOc2ccncc21 [Compound 59, (2,3-dihydro-pyrido[4,3-b][1,4]oxazin-4-yl)-(2,4-dihydroxy-pyrimidin-5-yl)-methanone] |  | > 20 µM | solubility at 2 h [1, 4]: 2240 µg/mL (≈ 8.18 mM); solubility at 2 h [1, 5]: 676 µg/mL (≈ 2.47 mM) |
| O=C(c1ccc(O)c(Cl)c1)N1CCOc2cnccc21 [Compound 34, (3-chloro-4-hydroxy-phenyl)-(2,3-dihydro-pyrido[3,4-b][1,4]oxazin-1-yl)-methanone] |  | 19.6 µM |  |
